Data published in patent publication US11773094B2, “Farnesoid X receptor agonists and uses thereof” (Metacrine, Inc., priority 2018, dated 2023).

What follows are molecules tested against T1, hFXR (Homo sapiens, UniProt Q96RI1) (assay: In Vitro FXR Assay (TK): TK-ECRE-luc reporter in transfected CV-1 cells). Conditions: CV-1 cells transfected with hFXR, hRXR, pCMX-YFP, 18 hrs incubation, luminescence.
T1 construct: expressed in transfected cells; host or cells: CV-1 cells
T1 sequence (Q96RI1 1-486): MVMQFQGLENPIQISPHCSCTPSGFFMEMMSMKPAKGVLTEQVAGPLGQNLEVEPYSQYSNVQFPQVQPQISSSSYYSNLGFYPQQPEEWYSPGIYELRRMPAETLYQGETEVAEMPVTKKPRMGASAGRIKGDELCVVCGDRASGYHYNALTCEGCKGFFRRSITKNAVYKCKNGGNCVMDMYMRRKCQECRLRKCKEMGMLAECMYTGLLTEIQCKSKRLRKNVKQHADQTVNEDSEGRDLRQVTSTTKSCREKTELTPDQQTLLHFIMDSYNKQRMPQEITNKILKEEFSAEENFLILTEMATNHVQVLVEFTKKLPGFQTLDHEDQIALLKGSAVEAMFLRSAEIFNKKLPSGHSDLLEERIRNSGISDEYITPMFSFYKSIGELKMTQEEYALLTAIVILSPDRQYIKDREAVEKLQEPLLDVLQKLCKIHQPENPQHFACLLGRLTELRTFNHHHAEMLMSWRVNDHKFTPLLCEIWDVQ
T1 sequence (P19793 1-462 partner): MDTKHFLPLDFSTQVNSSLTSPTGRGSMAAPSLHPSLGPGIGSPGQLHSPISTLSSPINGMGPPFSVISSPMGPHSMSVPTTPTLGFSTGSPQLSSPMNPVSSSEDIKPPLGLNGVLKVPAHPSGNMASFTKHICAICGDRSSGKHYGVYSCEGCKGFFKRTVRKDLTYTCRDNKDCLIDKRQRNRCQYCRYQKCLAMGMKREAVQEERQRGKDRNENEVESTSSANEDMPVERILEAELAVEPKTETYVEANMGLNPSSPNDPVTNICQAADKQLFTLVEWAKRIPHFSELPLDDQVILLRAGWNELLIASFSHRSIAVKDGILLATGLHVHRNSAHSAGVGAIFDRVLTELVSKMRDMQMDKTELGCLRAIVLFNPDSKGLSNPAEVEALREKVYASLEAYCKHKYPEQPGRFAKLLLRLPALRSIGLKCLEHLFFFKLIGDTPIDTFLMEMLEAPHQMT
Assay type: cell-based
Experimental: Example B-1: In Vitro FXR Assay (TK)
CV-1 cells were seeded at a density of 2,000,000 cells in a T175 flask with DMEM+10% charcoal double-stripped FBS and incubated at 37° C. in 5% CO2 for 18 h (O/N).
After 18 h of incubation, the medium in the T175 flask was changed with fresh DMEM+10% charcoal super-stripped serum. In a polypropylene tube, 2500 μL OptiMEM (Life Technologies, Cat #31985-062) was combined with expression plasmids for hFXR, hRXR, TK-ECRE-luc and pCMX-YFP. The tube was then briefly vortexed and incubated at room temperature for 5 minutes. Transfection reagent (X-tremeGENE HP from Roche, Cat #06 366 236 001) was added to the OptiMEM/plasmid mixture vortexed and incubated at room temperature for 20 minutes. Following incubation, the transfection reagent/DNA mixture complex was added to cells in the T175 flask and the cells were incubated at 37° C. in 5% CO2 for 18 h (O/N).
Compounds were serially diluted in DMSO and added to transfected CV-1 cells. The cells were then incubated for 18 hrs. The next day cells were lysed and examined for luminescence.

| Structure (SMILES) | EC50 [nM] |
| --- | --- |
| COc1ccc(C23CCC(CN(c4cc(-c5coc(C(C)(C)C)n5)ccn4)C(=O)[C@H]4CC[C@H](OC(=O)NCCC(C)(C)O)CC4)(CC2)CC3)cc1C [Compound 2.20, 4-((4-(2-(tert-Butyl)oxazol-4-yl)pyridin-2-yl)((4-(4-methoxy-3-methylphenyl)bicyclo[2.2.2]octan-1-yl)methyl)carbamoyl) (trans-cyclohexyl) (3-hydroxy-3-methylbutyl)carbamate] | ≤ 10 |
| COc1ccc(C23CCC(CN(c4cc(-c5coc(C(C)(C)C)n5)ccn4)C(=O)[C@H]4CC[C@H](OC(=O)NCCO)CC4)(CC2)CC3)cc1C [Compound 2.19, 4-((4-(2-(tert-Butyl)oxazol-4-yl)pyridin-2-yl)((4-(4-methoxy-3-methylphenyl)bicyclo[2.2.2]octan-1-yl)methyl)carbamoyl)cyclohexyl (2-hydroxyethyl)trans-carbamate] | ≤ 10 |
| COc1ccc([C@H]2CC[C@H](CN(c3cc(-c4cnc(C(C)(C)C)s4)ccn3)C(=O)[C@H]3CC[C@H](OC(=O)N4CCC(O)CC4)CC3)CC2)cc1C [Compound 1.03, trans-4-((4-(2-(tert-Butyl)thiazol-5-yl)pyridin-2-yl)(((trans)-4-(4-methoxy-3-methylphenyl)cyclohexyl)methyl)carbamoyl) cyclohexyl 4-hydroxypiperidine-1-carboxylate] | 10 to 1000 |
| COc1c(C)cc(C23CCC(CN(c4cc(-c5cnn(C(C)(C)C)c5)ccn4)C(=O)[C@H]4CC[C@H](OC(=O)N5CC(O)C5)CC4)(CC2)CC3)cc1C [Compound 3.04, 4-((4-(1-(tert-Butyl)-1H-pyrazol-4-yl)pyridin-2-yl)((4-(4-methoxy-3,5-dimethylphenyl)bicyclo[2.2.2]octan-1-yl)methyl)carbamoyl) (trans-cyclohexyl) 3-hydroxyazetidine-1-carboxylate] | ≤ 10 |
| COc1c(C)cc(C23CCC(CN(c4nccc(-c5cnn(C(C)(C)C)c5)n4)C(=O)[C@H]4CC[C@H](OC(=O)N5CC(O)C5)CC4)(CC2)CC3)cc1C [Compound 3.15, 4-((4-(1-(tert-Butyl)-1H-pyrazol-4-yl)pyrimidin-2-yl)((4-(4-methoxy-3,5-dimethylphenyl)bicyclo[2.2.2]octan-1-yl)methyl)carbamoyl) (trans-cyclohexyl) 3-hydroxyazetidine-1-carboxylate] | 10 to 1000 |
| COc1ccc(C23CCC(CN(c4cc(-c5cnn(C(C)(C)C)c5)ccn4)C(=O)[C@H]4CC[C@H](OC(=O)N5CC(S(C)(=O)=O)C5)CC4)(CC2)CC3)cc1C [Compound 2.23, 4-((4-(1-(tert-Butyl)-1H-pyrazol-4-yl)pyridin-2-yl)((4-(4-methoxy-3-methylphenyl)bicyclo[2.2.2]octan-1-yl)methyl)carbamoyl) (trans-cyclohexyl) 3-(methylsulfonyl)azetidine-1-carboxylate] | ≤ 10 |
| COc1ccc(C23CCC(CN(c4cc(-c5cnc(C(C)(C)C)s5)ccn4)C(=O)[C@H]4CC[C@H](OC(=O)NC5COC5)CC4)(CC2)CC3)cc1C [Compound 2.04, 4-((4-(2-(tert-Butyl)thiazol-5-yl)pyridin-2-yl)((4-(4-methoxy-3-methylphenyl)bicyclo[2.2.2]octan-1-yl)methyl)carbamoyl) (trans-cyclohexyl) oxetan-3-ylcarbamate] | ≤ 10 |
| COc1ccc(C23CCC(CN(c4cc(-c5coc(C(C)(C)C)n5)ccn4)C(=O)[C@H]4CC[C@H](OC(=O)N5CC(O)C5)CC4)(CC2)CC3)cc1C [Compound 3.10, 4-((4-(2-(tert-Butyl)oxazol-4-yl)pyridin-2-yl)((4-(4-methoxy-3-methylphenyl)bicyclo[2.2.2]octan-1-yl)methyl)carbamoyl)cyclohexyl 3-hydroxyazetidine-trans-1-carboxylate] | ≤ 10 |
| CCC(C)(C)n1cc(-c2ccnc(N(CC34CCC(c5ccc(OC)c(C)c5)(CC3)CC4)C(=O)[C@H]3CC[C@H](OC(=O)N4CC(C)(O)C4)CC3)c2)cn1 [Compound 4.01, 4-(((4-(4-Methoxy-3-methylphenyl)bicyclo[2.2.2]octan-1-yl)methyl)(4-(1-(tert-pentyl)-1H-pyrazol-4-yl)pyridin-2-yl)carbamoyl) cyclohexyl trans-3-hydroxy-3-methylazetidine-1-carboxylate] | ≤ 10 |
| COc1ccc([C@H]2CC[C@H](CN(c3cc(-c4cnc(C(C)(C)C)s4)ccn3)C(=O)[C@H]3CC[C@H](OC(=O)N4CC(O)C4(C)C)CC3)CC2)cc1C (stereo partly drawn) [Compound 1.02, trans-4-((4-(2-(tert-Butyl)thiazol-5-yl)pyridin-2-yl)(((trans)-4-(4-methoxy-3-methylphenyl)cyclohexyl)methyl)carbamoyl) cyclohexyl 3-hydroxy-2,2-dimethylazetidine-1-carboxylate] | 10 to 1000 |
| CCC(C)(CC)n1cc(-c2ccnc(N(CC34CCC(c5ccc(OC)c(C)c5)(CC3)CC4)C(=O)[C@H]3CC[C@H](OC(=O)N4CC(C)(O)C4)CC3)c2)cn1 [Compound 4.05, 4-(((4-(4-Methoxy-3-methylphenyl)bicyclo[2.2.2]octan-1-yl)methyl)(4-(1-(3-methylpentan-3-yl)-1H-pyrazol-4-yl)pyridin-2-yl)carbamoyl)cyclohexyl trans-3-hydroxy-3-methylazetidine-1-carboxylate] | ≤ 10 |
| COc1ncc(C23CCC(CN(c4cc(-c5cnn(C(C)(C)C)c5)ccn4)C(=O)[C@H]4CC[C@H](OC(=O)N5CC(O)C5)CC4)(CC2)CC3)cc1C [Compound 3.05, 4-((4-(1-(tert-Butyl)-1H-pyrazol-4-yl)pyridin-2-yl)((4-(6-methoxy-5-methylpyridin-3-yl)bicyclo[2.2.2]octan-1-yl)methyl)carbamoyl) (trans-cyclohexyl) 3-hydroxyazetidine-1-carboxylate] | ≤ 10 |
| COc1ccc([C@H]2CC[C@H](CN(c3cc(-c4coc(C(C)(C)C)n4)ccn3)C(=O)[C@H]3CC[C@H](OC(=O)N4CC(O)C4(C)C)CC3)CC2)cc1C (stereo partly drawn) [Compound 1.05, trans-4-((4-(2-(tert-Butyl)oxazol-4-yl)pyridin-2-yl)(((trans)-4-(4-methoxy-3-methylphenyl)cyclohexyl)methyl)carbamoyl) cyclohexyl 3-hydroxy-2,2-dimethylazetidine-1-carboxylate] | 10 to 1000 |
| COc1ccc(C23CCC(CN(c4cc(-c5cnn(C(C)(C)C)c5)ccn4)C(=O)[C@H]4CC[C@H](OC(=O)N5CCC(O)CC5)CC4)(CC2)CC3)cc1C [Compound 2.27, 4-((4-(1-(tert-Butyl)-1H-pyrazol-4-yl)pyridin-2-yl)((4-(4-methoxy-3-methylphenyl)bicyclo[2.2.2]octan-1-yl)methyl)carbamoyl)cyclohexyl 4-hydroxypiperidine-trans-1-carboxylate] | ≤ 10 |
| COc1ccc(C23CCC(CN(c4cc(-c5coc(C(C)(C)C)n5)ccn4)C(=O)[C@H]4CC[C@H](OC(=O)N5CC(CO)C5)CC4)(CC2)CC3)cc1C [Compound 2.15, 4-((4-(2-(tert-Butyl)oxazol-4-yl)pyridin-2-yl)((4-(4-methoxy-3-methylphenyl)bicyclo[2.2.2]octan-1-yl)methyl)carbamoyl) (trans-cyclohexyl) 3-(hydroxymethyl)azetidine-1-carboxylate] | ≤ 10 |
| COc1ccc(C23CCC(CN(c4cc(-c5coc(C(C)(C)C)n5)ccn4)C(=O)[C@H]4CC[C@H](OC(=O)NC5CCOCC5)CC4)(CC2)CC3)cc1C [Compound 3.11, 4-((4-(2-(tert-Butyl)oxazol-4-yl)pyridin-2-yl)((4-(4-methoxy-3-methylphenyl)bicyclo[2.2.2]octan-1-yl)methyl)carbamoyl) cyclohexyl (tetrahydro-2H-pyran-4-yl)trans-carbamate] | ≤ 10 |
| CCC(C)(CC)n1cc(-c2ccnc(N(CC34CCC(c5ccc(OC)c(C)c5)(CC3)CC4)C(=O)[C@H]3CC[C@H](OC(=O)N4CC(O)C4)CC3)c2)cn1 [Compound 4.04, 4-(((4-(4-Methoxy-3-methylphenyl)bicyclo[2.2.2]octan-1-yl)methyl)(4-(1-(3-methylpentan-3-yl)-1H-pyrazol-4-yl)pyridin-2-yl)carbamoyl)cyclohexyl trans-3-hydroxyazetidine-1-carboxylate] | ≤ 10 |
